Experimental findings from ChEMBL document CHEMBL5331134, “Identification of Brain-Penetrant ATP-Competitive mTOR Inhibitors for CNS Syndromes” (J Med Chem, 2023) are described below.

Structures are written as SMILES.

Series [1] is described as follows: Ratio of drug concentration in brain to plasma in C57BL/6 mouse at 1 mg/kg, po measured at 1 hr. In kind it is ADME, organism-based. The settings on record: read-out: BPR.
Series [2] can be described thus: Drug concentration in C57BL/6 mouse plasma at 1 mg/kg, po measured after 8 hrs. Type of series: ADME, organism-based.
Series [3] can be described thus: Drug concentration in C57BL/6 mouse brain at 1 mg/kg, po measured after 24 hrs. Type of series: ADME, organism-based. The conditions noted are these: read-out: Ct.
Series [4] is described as follows: Tmax in cynomolgus monkey at 1 mg/kg, po and 0.1 mg/kg, iv measured upto 24 hrs by LC/MS/MS analysis. The settings on record: in vivo. In kind it is ADME, organism-based, Macaca fascicularis.
The nature of series [5]: Half life in cynomolgus monkey at 1 mg/kg, po and 0.1 mg/kg, iv measured upto 24 hrs by LC/MS/MS analysis. Type of series: ADME, organism-based, Macaca fascicularis. The settings on record: in vivo.

As to `C[C@@H]1COCCN1c1cc(N2CCOC[C@@H]2C)nc2[nH]c(-c3cscn3)nc12`, in series [1], the Kp at 1 h was 0.51. Further, the concentration at 8 h in series [2] worked out at 246 nM. Moreover, in series [3], the concentration at 24 h was determined as 7 nM. The Tmax in series [4] came to 1.2 h. For the same compound, the half-life in series [5] was 300 min.
